Literature values, collected in patent US12357645B2, “Drug combination for treatment of gastric cancer” (priority 2023, dated 2025).

How the values were obtained:
[1] = system: gastric cancer; details: by stimulating expression of p53 and p21 (waf1/cip1); cited from earlier work
[2] = cited from earlier work

CC(C)[C@]12O[C@H]1[C@@H]1O[C@]13[C@]1(O[C@H]1C[C@H]1C4=C(CC[C@@]13C)C(=O)OC4)[C@@H]2O [triptolide, reference compound]
cell growth and apoptosis [1]: inhibit cell growth and induce apoptosis
aqueous solubility [2]: limited aqueous solubility
